The nature of assay [1]: Example 1: bleaching of shading dyes in pH=10 buffer by catalyst AC and hydrogen peroxide, from optical density. Particulars: after 30 minutes at 20 °C; for % bleaching (a): (a) 1 micromolar AC, 1 millimolar hydrogen peroxide; for % bleaching (b): (b) 4 micromolar AC, 4 millimolar hydrogen peroxide. The protocol:
A selection of shading dyes, which deposit onto cotton from wash solutions and have varying structures, was made. Solution of these dyes were made in pH=10 buffer such that the optical density at 1 cm was approximately 1. To this solution the catalyst AC was added alongside hydrogen peroxide such that the concentrations were: • (a) 1 micromolar AC, 1 millimolar hydrogen peroxide • (b) 4 micromolar AC, 4 millimolar hydrogen peroxide The optical density of the dye was measured at the beginning of the experiment and after 30 minutes at 20 °C. From these measurements the % of dye bleaching was calculated using the equation % bleaching = 100 x (ODinitial-OD30 minutes)/ODinitial [formula]

Assay [2] is described as follows: Example 5: dye bleaching in solution at pH=10 by catalyst and peroxide. An excerpt: Bleaching was much slower with […] 2 millimolar peroxide.
A short description of assay [3]: Example 7: shading of white cotton washed with Persil Colour containing direct violet 51 and bleach system. Particulars: 100 ppb direct violet 51, 5g/L Persil Colour, 40°C, 30 minutes. The protocol:
(§1) White non-mercerised cotton sheeting was washed at 40°C in 5g/L Persil Colour for 30 minutes with a liquor to cloth ratio of 60:1. Persil Colour is a zeolite/anionic/non-ionic surfactant based washing powder. Direct Violet 51 was added to the powder such that 100 ppb of direct violet 51 was in the wash liquor.
(§2) The experiment was repeated with the addition of 10 micromolar catalyst with 10 millimolar peroxide and 2 micromolar catalyst with 2 millimolar peroxide. Following rinsing and drying the colour of the cloth was measured relative to a white cotton control cloth washed without addition of direct violet 51.

Assay [4] can be described thus: Example 7: bleaching of BC1 monitor washed with Persil Colour and bleach system. Particulars: no direct violet 51, liquor to cloth ratio 120:1. On the procedure:
as §1, §2
The experiment was then repeated using a BC1 model tea bleach monitor and a liquor to cloth ratio of 120:1. For clarity no direct violet 51 was added to the Persil Colour in this case.

Assay [5] in a line: Example 2: shading of cotton washed with Persil Colour powder containing acid blue 25, catalyst and hydrogen peroxide (reflectometer, delta E). Also noted: key: reflectometer delta E vs cloth washed without added dye or bleach. The conditions noted are these: 0.3% acid blue 25 in powder, 2.5g/L, 30°C, 30 minutes. The protocol: Various amounts of catalyst AC and DC were separately added to Persil Colour (TM) washing powder, such that when the powder was dosed at 2.5g/L a 1, 2, 4 and 8 micromolar solution of the catalysts were obtained. Persil Colour is a commercial washing powder containing 5-15% anionic surfactant and non-ionic surfactant, 15-30% zeolite and less than 5% soap, polycarboxylate and phosphate. It also contains enzymes. 0.3% of the dye acid blue 25 was also added to the powder. The so-created powders were used to wash bleach non-mercerised woven cotton at 30°C, for 30 minutes with a liquor to cloth ration of 30:1 and 2.5g/L powder. Various amounts of hydrogen peroxide was added to activate the catalyst. Following the wash the clothes were rinsed dried and the shading on the cloth measured using a reflectometer and expressed as the delta E values relative to cloth washed with Persil Colour without added dye or bleach system.

A short description of assay [6]: Example 3: bleaching of BC1 stain monitor cloth with catalyst AC and hydrogen peroxide (delta E). Particulars: pH=10, 0.5g/L LAS, 30°C, 30 minutes. The protocol:
BC1 (fixed tea stain) bleachable stain test monitor cloth was washed in a bicarbonate buffer (pH=10) with 0.5g/L LAS surfactant, a Liquor to Cloth ratio of 60:1, a temperature of 30°C and a wash time of 30 minutes. The experiment was repeated with various levels of catalyst AC and hydrogen peroxide. The final colour of the cloth was measured and expressed as the delta E relative to a clean piece of cotton. Lower values indicate effective bleaching of the stain.

Assay [7] in a line: Example 6: take up of hydrophobic shading dyes by polyester in a wash with catalyst and hydrogen peroxide (delta E). Particulars: 0.2ppm dye, 1.8g/L powder, 30 minutes at 20°C. The protocol: White knitted polyester was washed for 30 minutes at 20°C in 1.8g/L of Brihlante™ washng powder (ex Brasil) with a liquor to cloth ration of 100:1. This is a phosphate/anionic surfactant based powder. Various levels of catalyst BC and hydrogen peroxide was added to the wash liquor alongside 0.2ppm of the hydrophobic shading dyes disperse blue 79:1 (azo dye) and solvent violet 13 (anthraquinone dye). The take up of the hydrophobic shading by the polyester was measured as the delta E relative to white cotton and the results shown below.

Assay [8] is described as follows: Example 4: bleaching of black tea stain on cotton sheeting. The conditions noted are these: pH=10 solution, 2 micromolar DC and 2 millimolar peroxide; versus control with 2 micromolar Mn(II) and 2 millimolar peroxide. On the procedure:
Black tea beverage was created by placing 1 PG Tips pyramid tea bag in 400ml of boiled ultrapure water for 5 minutes. The tea bag was then removed and the beverage cooled to room temperature. Non-mercerised non-fluorescent white cotton sheeting was dipped in the cold tea and removed. The cloth was left to dry for 1 day in the dark, then used for experiments.

Where [9] appears, read: pH=10, 2 micromolar catalyst with 2 millimolar peroxide.
[10] abbreviates: pH=10, 10 micromolar catalyst with 10 millimolar peroxide.
Where [11] appears, read: 2 micromolar catalyst, 2 millimolar H2O2, colour relative to white cotton control washed without dye.
The mark [12] stands for this setting: 10 micromolar catalyst, 10 millimolar H2O2.
[13] abbreviates: 2 micromolar catalyst, 2 millimolar H2O2.
[14] abbreviates: 1 micromolar catalyst, 1 millimolar H2O2, relative to cloth washed without dye or bleach system.
Where [15] appears, read: 4 micromolar catalyst, 4 millimolar H2O2.
The mark [16] stands for this setting: 8 micromolar catalyst, 8 millimolar H2O2.
Setting [17] is: 0 micromolar catalyst, 0 millimolar H2O2.
Where [18] appears, read: 1 micromolar catalyst, 1 millimolar H2O2.
Where [19] appears, read: 2 millimolar H2O2 without catalyst.
Setting [20] is: 10 millimolar H2O2 without catalyst.

In the case of `COc1cc(N=Nc2c(C)cc(C)cc2S(=O)(=O)[O-])c(C)cc1N=Nc1c(S(=O)(=O)[O-])cc2cc(Nc3ccccc3)ccc2c1O.[Na+].[Na+]` [Direct violet 51], in assay [1], the “% bleaching (a)” value turned out to be 1% and the “% bleaching (b)” value amounted to 29%.
Regarding `Nc1c(S(=O)(=O)[O-])cc(Nc2ccccc2)c2c1C(=O)c1ccccc1C2=O.[Na+]` [Acid blue 25], in assay [1], the “% bleaching (a)” value was determined as 66% and the “% bleaching (b)” value is listed as 96%.
As for `COC(=O)C12CN(CCN(C)C)CC(C(=O)OC)(C1=O)C(c1ccccn1)N(C)C2c1ccccn1` (stereo not shown) [BC], in assay [2] (setting [9]), the “bleaching of Acid blue 25 in solution” value is on record as “much slower” and the “bleaching of Direct violet 51 in solution” value was “much slower”. Further, in assay [2] (setting [10]), the “bleaching of Acid blue 25 in solution” value is recorded as “effectively bleached” and the “bleaching of Direct violet 51 in solution” value was “effectively bleached”.
`COC(=O)C12CN(CCN3CCCC3)CC(C(=O)OC)(C1=O)C(c1ccccn1)N(C)C2c1ccccn1` (stereo not shown) [EC]: the White cotton in assay [3] (setting [11]) is recorded as 1.5; in assay [3] (setting [12]) it was 0.7. For the same molecule, the results for the BC1 in assay [4] (setting [13]) and in assay [4] (setting [12]) were 17.5 and 13.1, respectively.
With `COC(=O)C12CN(C(C)CN(C)C)CC(C(=O)OC)(C1=O)C(c1ccccn1)N(C)C2c1ccccn1` (stereo not shown) [AC], the White cotton in assay [3] (setting [11]) was 1.5; in assay [3] (setting [12]), 0.5. In addition, the “Delta E” value in assay [5] (setting [14]) is 5.1; in assay [5] (setting [13]), 2.0; in assay [5] (setting [15]), 0.4; in assay [5] (setting [16]) it was 0.3; in assay [6] (1 micromolar AC, 1 millimolar H2O2, relative to clean cotton, lower = effective bleaching) it was 17.0; in assay [6] (1 micromolar AC, 2 millimolar H2O2), 16.2. Also, the “Delta E” value in assay [6] (2 micromolar AC, 1 millimolar H2O2) was determined as 15.9; in assay [6] (2 micromolar AC, 2 millimolar H2O2) it was 14.6. The BC1 in assay [4] (setting [13]) is 16.5; in assay [4] (setting [12]), 10.9.
On to `COc1cc(N=Nc2c(Br)cc([N+](=O)[O-])cc2[N+](=O)[O-])c(NC(C)=O)cc1N(CCOC(C)=O)CCOC(C)=O` [Blue 79:1, disperse blue 79:1], for which the “Delta E” value in assay [7] (setting [17]) is listed as 2.8; in assay [7] (setting [18]), 2.8; in assay [7] (setting [12]) it was 2.3.
With `OO` [Catalyst H2O2, hydrogen peroxide], the White cotton in assay [3] (setting [19]) was 1.5; in assay [3] (setting [20]), 1.4. The “Delta E” value in assay [6] (0 micromolar AC, 1 millimolar H2O2 alone) worked out at 18.5; in assay [6] (0 micromolar AC, 2 millimolar H2O2 alone), 18.1. Moreover, the BC1 in assay [4] (setting [19]) was 19.3; in assay [4] (setting [20]), 18.9.
`COC(=O)C12CN(CCN3CCOCC3)CC(C(=O)OC)(C1=O)C(c1ccccn1)N(C)C2c1ccccn1` (stereo not shown) [CC]: in assay [2] (setting [9]), the “bleaching of Acid blue 25 in solution” value is on record as “much slower” and the “bleaching of Direct violet 51 in solution” value is “much slower”. In assay [2] (setting [10]), the “bleaching of Acid blue 25 in solution” value is on record as “effectively bleached” and the “bleaching of Direct violet 51 in solution” value is “effectively bleached”.
For the molecule `Oc1cc(-c2ccccn2)nc(-c2ccccn2)c1` [DC], the “Delta E” value in assay [5] (setting [14]) came to 12.3; in assay [5] (setting [13]), 12.2; in assay [5] (setting [15]) it was 12.0; in assay [5] (setting [16]), 11.7. Besides, in assay [8], the “bleaching of the tea stain” value is given as “significantly above that of a control solution”.
As for `O=S(=O)([O-])c1cccc(N=Nc2ccc(N=Nc3ccc(Nc4ccccc4)c4c(S(=O)(=O)[O-])cccc34)c3ccccc23)c1.[Na+].[Na+]` [Acid blue 113], in assay [1], the “% bleaching (a)” value worked out at 79% and the “% bleaching (b)” value amounted to 99%.
On to `Nc1c(N=Nc2ccc([N+](=O)[O-])cc2)c(S(=O)(=O)[O-])cc2cc(S(=O)(=O)[O-])c(N=Nc3ccccc3)c(O)c12.[Na+].[Na+]` [Acid black 1], for which, in assay [1], the “% bleaching (a)” value came out at 27% and the “% bleaching (b)” value came out at 53%.
Take `Cc1ccc(Nc2ccc(O)c3c2C(=O)c2ccccc2C3=O)cc1` [Violet 13, solvent violet 13]: the “Delta E” value in assay [7] (setting [17]) was 4.0; in assay [7] (setting [18]) it was 1.6; in assay [7] (setting [12]), 0.2.

The record behind these values is patent EP2228429A1, “Shading dye and catalyst combination” (Unilever PLC, priority 2009, dated 2010).
